Test systems include 786-0; A498; ACHN; CAKI-1; COLO 205; DU-145; HL-60; K562; KM12; MCF7; MDA-MB-231; NCI-H23; OVCAR-8; PC-3; RXF 393; SF-295; SK-MEL-2; SK-MEL-5; SN12C; UO-31.
Test in all cases: growth of human tumour cells (NCI), 48 h

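All cell lines were grown in 96-well plates and treated with compound for 48 hours. GI50 marks 50% less growth.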 Active and inactive are the calls of the source. Rule as the data show it: active = GI50 up to about 1.1 µM and inactive = higher.

For the compound `O=C(Nc1ccccc1C(=O)O)/C(=C/c1ccccc1)NC(=O)c1ccccc1`, the GI50 with 786-0, in the test on A498, in the test on ACHN, in the test with CAKI-1, with COLO 205 and with DU-145 was > 100 µM (inactive) each time. The GI50 with HL-60, with K562, in the test on KM12, in the test with MCF7, in the test with MDA-MB-231 and in the test with NCI-H23 was > 100 µM (inactive) throughout. For the same compound, the GI50 in the test on OVCAR-8 is > 100 µM (inactive); with PC-3, > 100 µM (inactive); with RXF 393, 65.9 µM (inactive); in the test with SF-295, > 100 µM (inactive); in the test on SK-MEL-2, > 100 µM (inactive); in the test with SK-MEL-5, > 100 µM (inactive). Besides, the GI50 with SN12C and in the test with UO-31 was > 100 µM (inactive) each time.

Regarding `CCCCCCCCCCCCCCCC(=O)Nc1ccn(C2CC(OP(=O)(O)OCC3OC(n4cc(F)c(=O)[nH]c4=O)CC3OC(C)=O)C(CO)O2)c(=O)n1` (stereo not given), the GI50 with 786-0 is 6.47 µM (inactive); with A498, > 35 µM (inactive); in the test on ACHN it was 0.128 µM (active); in the test on CAKI-1, 1.56 µM (inactive); in the test with COLO 205, 18.3 µM (inactive); in the test on DU-145, 3.61 µM (inactive). In addition, the GI50 in the test with HL-60 is 3.94 µM (inactive); with K562 it was 13.3 µM (inactive); in the test on KM12 it was 15 µM (inactive); in the test on MCF7, > 100 µM (inactive); in the test with MDA-MB-231 it was > 43.4 µM (inactive); in the test with NCI-H23, 3.86 µM (inactive). Besides, the GI50 with OVCAR-8 was 3.78 µM (inactive); in the test on PC-3, 7.87 µM (inactive); in the test on RXF 393 it was > 41 µM (inactive); in the test with SF-295, 1.81 µM (inactive); with SK-MEL-2 it was > 45.1 µM (inactive); with SK-MEL-5, 11.5 µM (inactive). Moreover, the GI50 in the test with SN12C was 6.03 µM (inactive); in the test on UO-31 it was 0.565 µM (active).

As for `CC(C)(C)OC(=O)N(CCCCNC(=O)C(F)(F)F)CCCNC(=O)C(F)(F)F`, the GI50 with 786-0, in the test on A498, with ACHN, with CAKI-1, in the test with COLO 205 and in the test on DU-145 was > 100 µM (inactive) each time. The GI50 in the test with HL-60 was 87.5 µM (inactive); with K562 it was > 100 µM (inactive); in the test with KM12, > 100 µM (inactive); in the test with MCF7, > 100 µM (inactive); with MDA-MB-231, > 100 µM (inactive); in the test on NCI-H23, > 100 µM (inactive). Besides, the GI50 in the test on OVCAR-8, in the test with PC-3, with RXF 393, in the test on SF-295, with SK-MEL-2 and in the test on SK-MEL-5 was > 100 µM (inactive) throughout. Also, the GI50 in the test on SN12C and with UO-31 was > 100 µM (inactive) throughout.

Take `CC1=C(/C=C/C(C)=C/C=C/C(C)=C/C(=O)Nc2ccc(O)cc2)C(C)(C)CCC1` [FENRETINIDE]: the GI50 in the test on 786-0 is 2.58 µM (inactive); in the test with A498, 4.73 µM (inactive); in the test on ACHN it was 4.19 µM (inactive); in the test on CAKI-1, 5.06 µM (inactive); in the test with COLO 205, 2.61 µM (inactive); with DU-145, 7.6 µM (inactive). The GI50 in the test on HL-60 was 0.893 µM (active); in the test with K562 it was 2.69 µM (inactive); with KM12, 3.92 µM (inactive); in the test with MCF7 it was 2.65 µM (inactive); with MDA-MB-231, 2.95 µM (inactive); in the test on NCI-H23, 2.06 µM (inactive). The GI50 with OVCAR-8 is 3.61 µM (inactive); in the test on PC-3, 3.13 µM (inactive); in the test with RXF 393, 2.04 µM (inactive); in the test with SF-295 it was 2.85 µM (inactive); in the test on SK-MEL-2, 7.33 µM (inactive); with SK-MEL-5, 4.15 µM (inactive). In addition, the GI50 with SN12C is 2.52 µM (inactive); in the test on UO-31, 3.26 µM (inactive).

For `COc1ccc(/C=C2\CCC(C)(CN(C)C)C2=O)cc1Br` (stereo not given), the GI50 in the test on 786-0 was 19.6 µM (inactive); in the test with A498 it was 22.4 µM (inactive); in the test with ACHN, 24.6 µM (inactive); with CAKI-1, 32.7 µM (inactive); in the test on COLO 205, 18.5 µM (inactive); in the test on DU-145 it was 50.4 µM (inactive). Further, the GI50 in the test with HL-60 was 34.8 µM (inactive); in the test on K562, 27.9 µM (inactive); in the test on KM12, 14 µM (inactive); in the test with MCF7, 13.5 µM (inactive); in the test with MDA-MB-231, 36.1 µM (inactive); in the test with NCI-H23 it was 28.8 µM (inactive). The GI50 in the test with OVCAR-8 was 17 µM (inactive); in the test with PC-3, 20.4 µM (inactive); with RXF 393, 17.9 µM (inactive); in the test on SF-295, 26.3 µM (inactive); with SK-MEL-2, 18.7 µM (inactive); with SK-MEL-5 it was 14.8 µM (inactive). Also, the GI50 with SN12C is 17.5 µM (inactive); in the test on UO-31 it was 18.1 µM (inactive).

Regarding `NS(=O)(=O)c1ccc(/N=N/c2ccc(O)c(O)c2)cc1`, the GI50 with 786-0 is 12.4 µM (inactive); in the test with A498 it was 24.9 µM (inactive); in the test with ACHN it was 3.22 µM (inactive); in the test on CAKI-1 it was 36.2 µM (inactive); with COLO 205 it was 20.7 µM (inactive); in the test on DU-145, 31 µM (inactive). In addition, the GI50 was 16.9 µM (inactive) in the test with HL-60; 28.7 µM (inactive) with K562; 11.7 µM (inactive) in the test with KM12; 27.5 µM (inactive) in the test on MCF7; 10.7 µM (inactive) with MDA-MB-231; 17 µM (inactive) in the test with NCI-H23. The GI50 is 4.88 µM (inactive) in the test on OVCAR-8; 20.6 µM (inactive) with PC-3; 17.7 µM (inactive) in the test on RXF 393; 37 µM (inactive) in the test on SF-295; 17.2 µM (inactive) in the test on SK-MEL-2; 6.19 µM (inactive) with SK-MEL-5. The GI50 was 10.4 µM (inactive) in the test with SN12C and 11.2 µM (inactive) in the test with UO-31.

For the compound `COC1CCN(N(C)C)O1` (stereo not given), the GI50 with 786-0, with A498, with ACHN, in the test with CAKI-1, in the test with COLO 205 and in the test with DU-145 was > 100 µM (inactive) each time. Further, the GI50 in the test with HL-60, in the test with K562, in the test with KM12, in the test with MCF7, in the test with MDA-MB-231 and in the test with NCI-H23 was > 100 µM (inactive) in each case. For the same compound, the GI50 in the test with OVCAR-8, with PC-3, in the test on RXF 393, with SF-295, in the test with SK-MEL-2 and with SK-MEL-5 was > 100 µM (inactive) throughout. In addition, the GI50 in the test on SN12C and in the test on UO-31 was > 100 µM (inactive) each time.

The values are drawn from ChEMBL document CHEMBL1201862, “PubChem BioAssay data set” (2004).
